US20220363649A1, “ORGANIC COMPOUNDS” (Rutgers, The State University of New Jersey, priority 2018, published 2022)

Columns and labels:
Sprague-Dawley rats [1] = assay: STZ-induced mechanical allodynia model in diabetic rats; format: in vivo, rat; details: i.p., von Frey
Method: (§1) Male Sprague-Dawley rats weighing 225-250 grams were employed. Streptozotocin (STZ, 50 mg/kg) freshly dissolved in 0.9% sterile saline was injected intraperitoneally on day 0. Three days later, diabetes was confirmed by existence of blood glucose >350 mg/dL as measured by glucometer. Animal health was monitored biweekly for 14 days, at which point mechanical allodynia and thermal hyperalgesia were measured and confirmed. During the course of the study, the animals were housed individually under constant temperature, humidity and a 12-hour light-dark cycle. The animals were tested prior to study inclusion for mechanical allodynia and thermal hyperalgesia.
(§2) The behavioral assessments include mechanical allodynia and thermal hyperalgesia. Test articles, vehicle and gabapentin were administered intraperitoneally on Days 14 or 21.
Mechanical allodynia was assessed by the manual von Frey test and measured prior to STZ injections (Day 0). The animals were then randomized to each groups based on pre-dose mechanical allodynia values (Day 13 and Day 20). The mechanical allodynia test was performed again at 0.5 and 1.5 hours after vehicle, test article or gabapentin administration on Day 14. […] Mechanical threshold (50% g threshold) was assessed using the up- and down-method following the procedure described by Chaplan, et al., 1994, J Neurosci Methods 53:55-63).

CD-1 mice = assay: Mouse tail flick test, potentiation of morphine analgesia; format: in vivo; details: mouse model of acute pain, n=8, i.p.; morphine SC
Method: Male young CD-1 mice (at the age of 7-8 weeks) were used for this study. Tail flick latency was determined using a lamp device (design derived from D'Amour & Smith, 1941, J. Pharmacol. Exp. Ther. 72(1):74-79). The behavioral endpoint was defined as a flick of the tail out of the path of the light. The intensity of the light was adjusted to provide a baseline response time of approximately 2-4 seconds. The light beam was focused approximately 4 cm from the tip of the tail. A cut off time of 20 seconds was used to prevent tissue damage. Mice received a single intra-peritoneal (IP) injection of either vehicle (saline) or test substance at appropriate doses followed immediately by a single sub-cutaneous (SC) administration of saline or Morphine at the appropriate dose for each group. Thirty minutes after the SC administration, the animals were gently restrained in a manner which allowed access to the tail and positioned beneath a light beam (D'Amour & Smith, 1941, J Pharmacol Exp Ther 72(1):74-79) with the tail aligned for measurement at approximately 4 cm from tail tip. The lamp device automatically timed each tail flick response once the tail was flicked away from the light beam by a sensor beneath the platform.

Sprague-Dawley rats [2] = assay: Rat rotarod test (motor incoordination); format: in vivo; details: i.p., male Sprague-Dawley rats
Method: Groups of 6 pre-selected male (Sprague-Dawley) rats weighing 180±20 g were included to the study motor coordination. Rats were trained on a rod at a continuous accelerating speed from 4 to 30 rpm/min during a time period of 4 minutes for at least 3 times before the study. Rats were randomly assigned to different groups with similar baseline.
Vehicle and test articles were administered by intraperitoneal (i.p.) injection. The rats were placed on the accelerating rotarod at 30, 60, 90 and 120 min post dosing, and the time (seconds) the rat remained on the rotarod was recorded.

Sprague-Dawley rats [3] = assay: Rat formalin test; format: in vivo; details: 20 and 40 mg/kg, i.p., hind paw licking time
Method: One day after the rotarod test, vehicle and test articles were administered intraperitoneally again to groups of 6 Sprague-Dawley male rats weighting 180±20 g, 30 minutes prior to sub-plantar injection of formalin (0.05 ml, 2% solution). The hind paw licking time was recorded during a 0-35 min period at 5-min intervals after formalin challenge as a measure of analgesic activity of the test compound.

S1R = target: T1, S1R (Cavia porcellus, UniProt Q60492); assay: S1R radiolabeled binding assay, guinea pig whole brain, [3H]-pentazocine; details: guinea pig brain membranes (Compounds 1-9); read-out: S1R Ki
T1 construct: performed using Guinea pig whole brain according to the protocol previously reported; from tissue; host or cells: guinea pig whole brain membrane preparations
T1 sequence (Q60492 whole entry): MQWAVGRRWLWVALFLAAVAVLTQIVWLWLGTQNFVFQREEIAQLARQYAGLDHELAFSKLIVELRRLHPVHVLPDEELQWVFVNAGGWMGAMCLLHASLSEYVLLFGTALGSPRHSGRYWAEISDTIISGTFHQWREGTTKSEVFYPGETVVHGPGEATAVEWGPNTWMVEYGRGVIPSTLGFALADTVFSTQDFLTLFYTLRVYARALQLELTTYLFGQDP
Method: Following 1 h incubation at 25° C., the binding assay was terminated by addition of cold buffer. The mixture was then filtered through Whatman GF/B filters and washed with cold buffer. Radioactivity was identified using the liquid scintillation counter.
Receptor binding data were analyzed by nonlinear regression of saturation and competition curves using the GraphPad Prism 7.0 software (GraphPad Software, La Jolla, Calif.).
(§3) Radiolabeled binding assays were conducted using two different species.

Sprague-Dawley rats [4] = assay: Paclitaxel-induced cold hyperalgesia model in rats; format: in vivo, rat; details: i.p.
Method: (§4) Male Sprague-Dawley rats weighing 240+20 grams were employed. Paclitaxel (brand name TAXOL®, 2 mg/kg) is injected intraperitoneally (i.p.) on days 1, 3, 5 and 7 with a total cumulative dose of 8 mg/kg. During the course of the study, the animals were housed individually under constant temperature, humidity and a 12-hour light-dark cycle.
(§5) Test articles, vehicle and gabapentin were administered intraperitoneally on Days 14 or 21.
Cold hyperalgesia was assessed by the […] and measured prior to Paclitaxel injections (Day 0) and test article administration (Days 13 or 20) and at 0.5 hour after dosing of vehicle or test articles on Days 14 or 21. The animals were randomized to each groups based on pre-dose cold hyperalgesia values (Days 13 or 20). Test rat was placed in 2.5 cm depth of a 0-2° C. ice water bath in a Plexiglas arena 32×32 cm×27 cm high. Withdrawal latency of the left paw was recorded and averaged twice for cold hyperalgesia assessment. A 20 sec cut time was employed.

Sprague-Dawley rats [5] = assay: Paclitaxel-induced mechanical allodynia model in rats; format: in vivo, rat; details: i.p., von Frey
Method: as §4, §5
Mechanical allodynia was assessed by the manual von Frey test and measured prior to Paclitaxel injections (Day 0) and test article administration (Days 13 or 20) and at 0.5 hour after dosing of vehicle or test articles on Days 14 or 21. The animals were randomized to each groups based on pre-dose mechanical allodynia values (Days 13 or 20). The animals were given 20 to 30 minutes to acclimatize prior to testing. The paw was touched with a series of 8 manual von Frey monofilaments with logarithmically incremental stiffness [3.61 (0.4 g), 3.84 (0.6 g), 4.08 (1.0 g), 4.31 (2.0 g), 4.56 (4.0 g), 4.74 (6.0 g), 4.93 (8.0 g), and 5.18 (15.0 g)]. […] Mechanical threshold (50% g threshold) was assessed using the up- and down-method following the procedure described by Chaplan, et al., 1994, J Neurosci Methods 53:55-63.

Sprague-Dawley rats [6] = assay: STZ-induced thermal hyperalgesia model in diabetic rats; format: in vivo, rat; details: i.p.
Method: as §1, §2
Thermal hyperalgesia: The animals were tested prior to study inclusion for thermal hyperalgesia on day 13 and Day 20. Thermal hyperalgesia was measured at 1 and 2 hours after dosing of vehicle or test article on Day 14 and Day 21 by using the IITC Model-336G (IITC INC. USA) apparatus. Each rat was placed within a plastic box atop a glass floor for 20 to 30 minutes. A light beam under the floor was aimed at the plantar surface of the left hind paw. The time was measured automatically when the paw was withdrawn away from the thermal stimulus. […]

Sprague Dawley rats [7] = assay: Spinal nerve ligation (SNL) Chung model in rats, thermal hyperalgesia; format: in vivo, rat; details: two doses, Hargreaves method
Method: (§6) Groups of 6 male Sprague Dawley rats weighing 160-200 grams were used. Prior to surgery and post-operatively, the animals were housed socially under constant temperature, humidity, and a 12-hour light-dark cycle. Following acclimation to the animal colony for 7 days, the rats were tested for mechanical allodynia and thermal hyperalgesia for baseline (pre-dose) values on Day −1. On Day 0, the animals were anesthetized with pentobarbital (50 mg/kg, i.p.). The left paraspinal muscles were separated from the spinous processes (L4-S2) and the L6-S1 facet joint was nipped. The transverse process of L6 was removed to allow for identifying the location of the L5 and L6 spinal nerves. The left L5-L6 spinal nerves were isolated and tightly ligated with 6.0 silk sutures. The rats are allowed to recover for 13 days.
Following a four (4) day wash out “period”, the rats were tested in the thermal hyperalgesia test and randomized to balance treatment groups. On Day 19, the rats were administered vehicle, Compound 68 at two doses, or gabapentin 50 mg/kg, IP. At 15 and 75 minutes post-dose the thermal hyperalgesia is tested again.
Thermal hyperalgesia: Thermal hyperalgesia is measured by the Hargreaves method. […] The time is measured automatically when the paw is withdrawn away from the thermal stimulus. […]

human S2R = target: T2, human S2R (Homo sapiens, UniProt Q5BJF2); assay: Human S2R radiolabeled binding assay, Jurkat Clone E6-1 cell membranes, [3H] DTG; details: human membranes (Compounds 10-76)
T2 construct: performed using Jurkat cell line Clone E6-1 cells with 0.025 μM; endogenous in cells; host or cells: Jurkat Clone E6-1 cell membranes
T2 sequence (Q5BJF2 whole entry): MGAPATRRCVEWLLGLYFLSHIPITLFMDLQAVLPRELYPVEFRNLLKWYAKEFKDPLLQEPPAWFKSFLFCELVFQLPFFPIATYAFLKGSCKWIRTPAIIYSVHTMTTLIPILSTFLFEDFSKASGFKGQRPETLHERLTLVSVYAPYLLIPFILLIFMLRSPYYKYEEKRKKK
Method: The radiolabeled binding assay of the human S1R and S2R were performed using human jurkat cell membranes according to the protocol previously reported (Ganapathy, et al., 1999, J. Pharmacol. Exp. Ther. 289:251-60).
DTG as radioligand. […] The cells were incubated in RPMI 1640 Medium with 10% FBS, 100 U/ml penicillin and […] streptomycin. After incubation, the cells were suspended in 5 mM potassium phosphate buffer (pH=7.6). The membrane protein concentration was controlled at 5 mg/mL. The collected membrane protein was incubated with ligands in potassium phosphate buffer for 1 hour at room temperature and terminated by adding ice-cold buffer. Then the mixture is filtered with 0.7 μm syringe filter and washed three times. The radioactivity is determined by liquid scintillation spectrometry.
Radiolabeled binding assays were conducted using two different species. Compounds 1-9 were assayed using guinea pig brain membranes for the binding assays. Compounds 10-76 were assayed using human brain membranes for the binding assays.

human S1R = target: T3, human S1R (Homo sapiens, UniProt Q99720); assay: Human S1R radiolabeled binding assay, human jurkat cell membranes, [3H]-pentazocine; details: human membranes (Compounds 10-76)
T3 construct: experimentally determined in human jurkat cell membranes using 15.0 nM; endogenous in cells; host or cells: human Jurkat cell membranes
T3 sequence (Q99720 whole entry): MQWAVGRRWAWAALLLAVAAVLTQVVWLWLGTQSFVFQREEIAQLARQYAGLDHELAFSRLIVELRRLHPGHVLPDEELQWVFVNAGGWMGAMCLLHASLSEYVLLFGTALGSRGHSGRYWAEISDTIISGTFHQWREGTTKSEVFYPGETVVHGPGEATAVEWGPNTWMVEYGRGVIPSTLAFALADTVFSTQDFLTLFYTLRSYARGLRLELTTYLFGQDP
Method: The binding process was terminated by addition of cold buffer. Then, the mixture was filtered and washed with cold buffer. Radioactivity was identified using the TopCount NTX liquid scintillation counter (PerkinElmer, Waltham, Mass.).
as §3

Sprague Dawley rats [8] = assay: Spinal nerve ligation (SNL) Chung model in rats, mechanical allodynia; format: in vivo, rat; details: two doses, von Frey
Method: as §6
Rats were tested for mechanical allodynia and thermal hyperalgesia following acclimation on Day −1 for baseline (pre-dose) values. Following the recovery period, the rats were tested to verify the mechanical allodynia on Day 13. […]
Mechanical allodynia: The mechanical allodynia is assessed by the manual von Frey test (Chaplan up/down method using von Frey filaments on the plantar surface of the CFA injected paw). […] Mechanical threshold (50% g threshold) is assessed using the up- and down-method following the procedure described by Chaplan (Chaplan et al., 1994, J Neurosci Methods 53:55-63).

Row | Ki (human S2R) [nM] | Ki (human S1R) [nM] | SMILES | analgesic activity, STZ-induced mechanical allodynia (Sprague-Dawley rats [1]) | potentiation of morphine's analgesia, Tail Flick Test (CD-1 mice) | motor incoordination effect in rat rotarod test (Sprague-Dawley rats [2]; 20 mg/kg) | motor incoordination effect in rat rotarod test (Sprague-Dawley rats [2]; 40 mg/kg, t=60 min) | analgesic activity in rat formalin test (Sprague-Dawley rats [3]) | Ki (S1R) [nM] | analgesic activity, Paclitaxel-induced cold hyperalgesia (Sprague-Dawley rats [4]) | analgesic activity, Paclitaxel-induced mechanical allodynia (Sprague-Dawley rats [5]) | analgesic activity, STZ-induced thermal hyperalgesia (Sprague-Dawley rats [6]) | analgesic activity, thermal hyperalgesia in SNL Chung model (Sprague Dawley rats [7]) | analgesic activity, mechanical allodynia in SNL Chung model (Sprague Dawley rats [8])
1 | – | – | Cn1nc(CN2CCCC2)nc1-c1ccc(C(C)(C)C)cc1 [Compound 8, 5-(4-(tert-butyl)phenyl)-1-methyl-3-(pyrrolidin-1-ylmethyl)-1H-1,2,4-triazole] | exhibits analgesic activity | potentiates morphine's analgesia | No motor incoordination effect | very slight and temporary motor incoordination effect | dose-dependent analgesic activity | 2.28 | exhibits analgesic activity | exhibits analgesic activity | exhibits analgesic activity | – | –
2 | 360 | 0.75 | CC(C)n1nc(CN2CCC3(CC3)C2)nc1-c1ccc(C(C)(C)C)cc1 [Compound 68, 5-((5-(4-(tert-butyl)phenyl)-1-isopropyl-1H-1,2,4-triazol-3-yl)methyl)-5-azaspiro[2.4]heptane] | – | – | – | – | – | – | – | – | – | exhibits analgesic activity | exhibits analgesic activity
